The nature of this data set: activity coefficient (dimensionless); of the first substance listed, at infinite dilution; xn = mol fraction of the nth substance listed. The note with it: Liquid, Chromatography, x1 = 0.

Numbers after ± are expanded uncertainties.

For the compound `C#CCCCC` [1-hexyne] + CCCCn1cc[n+](C)c1.N#CN=C=[N-], the activity coefficient is, setting by setting: (318.15 K) 5.43 ± 0.37; (328.15 K) 5.76 ± 0.39; (338.15 K) 6.12 ± 0.42; (348.15 K) 6.49 ± 0.44; (358.15 K) 6.85 ± 0.47; (368.15 K) 7.23 ± 0.49.
Consider `CC(C)c1ccccc1` [isopropylbenzene] + CCCCn1cc[n+](C)c1.N#CN=C=[N-], for which the activity coefficient came to 7.3 ± 0.5 (318.15 K); 7.52 ± 0.51 (328.15 K); 7.72 ± 0.53 (338.15 K); 7.93 ± 0.54 (348.15 K); 8.11 ± 0.55 (358.15 K); 8.3 ± 0.6 (368.15 K).
`Cc1ccccc1C` [1,2-dimethylbenzene] + CCCCn1cc[n+](C)c1.N#CN=C=[N-]: the activity coefficient by setting is: (318.15 K) 3.82 ± 0.26; (328.15 K) 3.97 ± 0.27; (338.15 K) 4.12 ± 0.28; (348.15 K) 4.27 ± 0.29; (358.15 K) 4.42 ± 0.3; (368.15 K) 4.57 ± 0.31.
With `CC(C)CO` [2-methyl-1-propanol] + CCCCn1cc[n+](C)c1.N#CN=C=[N-], the activity coefficient was 1.08 ± 0.07 (318.15 K); 1.08 ± 0.07 (328.15 K); 1.09 ± 0.07 (338.15 K); 1.09 ± 0.07 (348.15 K); 1.09 ± 0.07 (358.15 K); 1.09 ± 0.07 (368.15 K).
As to `CC#N` [acetonitrile] + CCCCn1cc[n+](C)c1.N#CN=C=[N-], the activity coefficient was found to be 0.781 ± 0.051 (318.15 K); 0.813 ± 0.053 (328.15 K); 0.844 ± 0.054 (338.15 K); 0.876 ± 0.056 (348.15 K); 0.904 ± 0.057 (358.15 K); 0.934 ± 0.059 (368.15 K).
For `CCCCCCCC` [octane] + CCCCn1cc[n+](C)c1.N#CN=C=[N-], the activity coefficient amounted to 137 ± 9 (318.15 K); 129 ± 9 (328.15 K); 123 ± 8 (338.15 K); 116 ± 8 (348.15 K); 111 ± 8 (358.15 K); 106 ± 7 (368.15 K).
Turning to `C=C(C)c1ccccc1` [(1-methylethenyl)benzene] + CCCCn1cc[n+](C)c1.N#CN=C=[N-], the activity coefficient reads like this: (318.15 K) 3.3 ± 0.2; (328.15 K) 3.53 ± 0.24; (338.15 K) 3.79 ± 0.26; (348.15 K) 4.02 ± 0.27; (358.15 K) 4.26 ± 0.29; (368.15 K) 4.51 ± 0.31.
Regarding `C#CCCC` [1-pentyne] + CCCCn1cc[n+](C)c1.N#CN=C=[N-], the activity coefficient is, setting by setting: (318.15 K) 3.7 ± 0.3; (328.15 K) 3.94 ± 0.27; (338.15 K) 4.16 ± 0.28; (348.15 K) 4.38 ± 0.3; (358.15 K) 4.6 ± 0.3; (368.15 K) 4.84 ± 0.33.
In the case of `C1COCCO1` [1,4-dioxane] + CCCCn1cc[n+](C)c1.N#CN=C=[N-], the activity coefficient reads like this: (318.15 K) 1.06 ± 0.07; (328.15 K) 1.13 ± 0.07; (338.15 K) 1.21 ± 0.08; (348.15 K) 1.28 ± 0.08; (358.15 K) 1.36 ± 0.09; (368.15 K) 1.43 ± 0.09.
As to `Cc1ccccc1` [toluene] + CCCCn1cc[n+](C)c1.N#CN=C=[N-], the activity coefficient is, setting by setting: (318.15 K) 2.89 ± 0.2; (328.15 K) 3.01 ± 0.2; (338.15 K) 3.15 ± 0.21; (348.15 K) 3.27 ± 0.22; (358.15 K) 3.4 ± 0.2; (368.15 K) 3.54 ± 0.24.
As for `CCCC(=O)OC` [methyl butanoate] + CCCCn1cc[n+](C)c1.N#CN=C=[N-], the activity coefficient is, setting by setting: (318.15 K) 3.46 ± 0.24; (328.15 K) 3.61 ± 0.25; (338.15 K) 3.75 ± 0.26; (348.15 K) 3.9 ± 0.27; (358.15 K) 4.03 ± 0.27; (368.15 K) 4.17 ± 0.28.
For `CC(C)(C)O` [2-methylpropan-2-ol] + CCCCn1cc[n+](C)c1.N#CN=C=[N-], the activity coefficient (318.15 K) amounted to 1.11 ± 0.07; the activity coefficient (328.15 K) came out at 1.14 ± 0.07; the activity coefficient (338.15 K) was 1.16 ± 0.07; the activity coefficient (348.15 K) amounted to 1.19 ± 0.08; the activity coefficient (358.15 K) was 1.21 ± 0.08; the activity coefficient (368.15 K) is 1.24 ± 0.08.
Take `CO` [methanol] + CCCCn1cc[n+](C)c1.N#CN=C=[N-]: the activity coefficient is 0.399 ± 0.034 (318.15 K); 0.408 ± 0.034 (328.15 K); 0.42 ± 0.035 (338.15 K); 0.431 ± 0.035 (348.15 K); 0.442 ± 0.036 (358.15 K); 0.46 ± 0.036 (368.15 K).
In the case of `CCOCC` [diethyl ether] + CCCCn1cc[n+](C)c1.N#CN=C=[N-], the activity coefficient was found to be 6.88 ± 0.47 (318.15 K); 7.11 ± 0.48 (328.15 K); 7.32 ± 0.5 (338.15 K); 7.53 ± 0.51 (348.15 K); 7.74 ± 0.53 (358.15 K); 7.95 ± 0.54 (368.15 K).
Turning to `O` [water] + CCCCn1cc[n+](C)c1.N#CN=C=[N-], the activity coefficient runs as follows: (318.15 K) 0.31 ± 0.03; (328.15 K) 0.323 ± 0.032; (338.15 K) 0.336 ± 0.032; (348.15 K) 0.349 ± 0.032; (358.15 K) 0.363 ± 0.033; (368.15 K) 0.376 ± 0.033.
On to `Cc1cccc(C)c1` [1,3-dimethylbenzene] + CCCCn1cc[n+](C)c1.N#CN=C=[N-], for which the activity coefficient reads like this: (318.15 K) 4.65 ± 0.32; (328.15 K) 4.82 ± 0.33; (338.15 K) 5.03 ± 0.34; (348.15 K) 5.19 ± 0.35; (358.15 K) 5.38 ± 0.37; (368.15 K) 5.56 ± 0.38.
`C1CCCCC1` [cyclohexane] + CCCCn1cc[n+](C)c1.N#CN=C=[N-]: the activity coefficient (318.15 K) is 25.8 ± 1.8; the activity coefficient (328.15 K) stood at 25 ± 1.7; the activity coefficient (338.15 K) is 24.3 ± 1.7; the activity coefficient (348.15 K) was found to be 23.7 ± 1.6; the activity coefficient (358.15 K) was determined as 23.1 ± 1.6; the activity coefficient (368.15 K) amounted to 22.6 ± 1.5.
With `CCO` [ethanol] + CCCCn1cc[n+](C)c1.N#CN=C=[N-], the activity coefficient is, setting by setting: (318.15 K) 0.65 ± 0.044; (328.15 K) 0.658 ± 0.045; (338.15 K) 0.669 ± 0.045; (348.15 K) 0.677 ± 0.046; (358.15 K) 0.686 ± 0.046; (368.15 K) 0.694 ± 0.047.
`CCC(C)O` (stereo unspecified) [butan-2-ol] + CCCCn1cc[n+](C)c1.N#CN=C=[N-]: the activity coefficient amounted to 1.13 ± 0.07 (318.15 K); 1.14 ± 0.07 (328.15 K); 1.16 ± 0.07 (338.15 K); 1.17 ± 0.07 (348.15 K); 1.18 ± 0.08 (358.15 K); 1.19 ± 0.08 (368.15 K).
For the compound `CCc1ccccc1` [ethylbenzene] + CCCCn1cc[n+](C)c1.N#CN=C=[N-], the activity coefficient runs as follows: (318.15 K) 4.78 ± 0.33; (328.15 K) 4.89 ± 0.33; (338.15 K) 5.07 ± 0.35; (348.15 K) 5.19 ± 0.35; (358.15 K) 5.33 ± 0.36; (368.15 K) 5.55 ± 0.38.
In the case of `CCCCCCCCC` [nonane] + CCCCn1cc[n+](C)c1.N#CN=C=[N-], the activity coefficient reads like this: (318.15 K) 207 ± 14; (328.15 K) 193 ± 13; (338.15 K) 181 ± 12; (348.15 K) 171 ± 12; (358.15 K) 162 ± 11; (368.15 K) 153 ± 11.

Source of the values: the NIST ThermoML archive (doi:10.1016/j.fluid.2016.02.004).
